Data from US9795139B2, “Molecules having pesticidal utility, and intermediates, compositions, and processes, related thereto” (priority 2015, dated 2017).
Read-outs that look alike come from different tables or passages of the source.

Assays:
Assay type in all cases: in vivo
[1] = tested on: Cabbage Looper (Trichoplusia ni, TRIPNI); assay: Bioassay on Cabbage Looper (CL), 128-well diet tray assay; details: 168 h, read-out: CL % Control (or Mortality) rating
Summary of the method: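 Second-instar larvae, one to five per well, placed on artificial diet treated with 50 μg/cm^2 test molecule in 90:10 acetone-water, dried before infestation. Held 5–7 days at 25° C, 14:10 light-dark; percent mortality averaged over eight wells.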

[2] = tested on: Yellow Fever Mosquito (Aedes aegypti, AEDSAE); details: about 1 day-old larvae, 96-well plate from 4000 ppm DMSO master, 3 days at room temperature
Description: Certain molecules disclosed in this document were tested against YFM using procedures described in the following paragraph. In the reporting of the results, the “GPA & YFM Rating Table” was used (See Table Section).
Master plates containing 400 μg of a molecule dissolved in 100 μL of dimethyl sulfoxide (DMSO) (equivalent to a 4000 ppm solution) are used. A master plate of assembled molecules contains 15 μL per well. To this plate, 135 μL of a 90:10 water/acetone mixture is added to each well. A robot is programmed to dispense 15 μL aspirations from the master plate into an empty 96-well shallow plate (“daughter” plate). There are 6 reps (“daughter” plates) created per master. The created “daughter” plates are then immediately infested with YFM larvae.
The day before plates are to be treated, mosquito eggs are placed in Millipore water containing liver powder to begin hatching (4 g. into 400 mL). After the “daughter” plates are created using the robot, they are infested with 220 μL of the liver powder/larval mosquito mixture (about 1 day-old larvae). After plates are infested with mosquito larvae, a non-evaporative lid is used to cover the plate to reduce drying. Plates are held at room temperature for 3 days prior to grading. After 3 days, each well is observed and scored based on mortality. The results are indicated in the table entitled “Table ABC: Biological Results” (See Table Section).

[3] = tested on: Beet Armyworm (Spodoptera exigua, LAPHEG); assay: Bioassay on Beet Armyworm (BAW), 128-well diet tray assay; details: 168 h, read-out: BAW % Control (or Mortality) rating
Summary of the method: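 Test molecule dissolved in acetone-water 90:10 is applied at 50 μg/cm^2 onto artificial diet and allowed to dry. Second instar larvae, one to five per well, are then added, and trays are vented and kept at 25° C. for five to seven days before mortality is scored.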

[4] = 50 μg/cm^2 on artificial diet, second instar larvae, 25° C., five to seven days, average of eight wells

Compound | mortality at 50 µg/cm2 [1, 4] | YFM % Control (or Mortality) rating [2] | mortality at 50 µg/cm2 [3, 4] | mortality at 50 µg/cm2 [1] | mortality at 50 µg/cm2 [3]
O=C(NC1CCC(F)(F)CC1)c1cc(NC(=O)[C@H]2[C@H](c3ccc(Cl)c(Cl)c3)C2(Cl)Cl)ccc1Cl (relative stereo) [Molecule F44, trans-2-Chloro-5-(2,2-dichloro-3-(3,4-dichlorophenyl)cyclopropanecarboxamido)-N-(4,4-difluorocyclohexyl)benzamide] | 50 to 100% | A (80-100) | 50 to 100% | – | –
N#CC1(NC(=O)c2cc(NC(=O)C3C(c4cc(Cl)cc(Cl)c4)C3(Cl)Br)ccc2Cl)CC1 (stereo not drawn) [Molecule F72] | – | D (No activity noticed in this bioassay) | – | 50 to 100% | 50 to 100%
CN(C(=O)c1cc(NC(=O)[C@H]2[C@H](c3ccc(Cl)c(Cl)c3)C2(Cl)Cl)ccc1Cl)C1(C#N)CC1 (relative stereo) [PF22, trans-2-Chloro-N-(1-cyanocyclopropyl)-5-(2,2-dichloro-3-(3,4-dichloro-phenyl)cyclopropane-1-carboxamido)-N-methylbenzamide] | 50 to 100% | B (More than 0-Less than 80) | 50 to 100% | – | –
Cc1cc([C@H]2[C@H](C(=O)Nc3ccc(Cl)c(C(=O)NC4(C#N)CC4)c3)C2(Cl)Cl)cc(Cl)c1Cl (relative stereo) [Molecule F51, trans-2-Chloro-N-(1-cyanocyclopropyl)-5-(2,2-dichloro-3-(3,4-dichloro-5-methylphenyl)cyclopropanecarboxamido)benzamide] | 50 to 100% | D (No activity noticed in this bioassay) | 50 to 100% | – | –
C[C@@]1(c2cc(Cl)cc(Cl)c2)[C@H](C(=O)Nc2ccc(Cl)c(C(=O)NC3CC(F)(F)C3)c2)C1(Cl)Cl (relative stereo) [Molecule F62, cis-2-Chloro-5-(2,2-dichloro-3-(3,5-dichlorophenyl)-3-methylcyclopropane-1-carboxamido)-N-(3,3-difluorocyclobutyl)benzamide] | 0 to 50% | D (No activity noticed in this bioassay) | 0 to 50% | – | –
N#CC1(NC(=O)c2cc(NC(=O)[C@H]3[C@H](c4cc(Cl)cc(Cl)c4)C3(Br)Br)ccc2Cl)CC1 (relative stereo) [PF30, trans-2-Chloro-N-(1-cyanocyclopropyl)-5-(2,2-dibromo-3-(3,5-dichlorophenyl)-cyclopropane-1-carboxamido)benzamide] | 50 to 100% | D (No activity noticed in this bioassay) | 50 to 100% | – | –
Cc1cc(Cl)cc([C@H]2[C@H](C(=O)Nc3ccc(Cl)c(C(=O)NC4CC(F)(F)C4)c3)C2(Cl)Cl)c1 (relative stereo) [Molecule F46, trans-2-Chloro-5-(2,2-dichloro-3-(3-chloro-5-methylphenyl)cyclopropanecarboxamido)-N-(3,3-difluorocyclobutyl)benzamide] | 50 to 100% | D (No activity noticed in this bioassay) | 50 to 100% | – | –
Nc1ccc([C@H]2[C@H](C(=O)Nc3ccc(Cl)c(C(=O)NC4CC(F)(F)C4)c3)C2(Cl)Cl)cc1 (relative stereo) [Molecule F70, trans-5-(3-(4-aminophenyl)-2,2-dichlorocyclopropane-1-carboxamido)-2-chloro-N-(3,3-difluorocyclobutyl)benzamide] | 50 to 100% | D (No activity noticed in this bioassay) | 0 to 50% | – | –
N#CC1(NC(=O)c2cc(NC(=O)[C@H]3[C@H](c4cc(Cl)cc(C(F)F)c4)C3(Cl)Cl)ccc2Cl)CC1 (relative stereo) [Molecule F85, trans-2-Chloro-N-(1-cyanocyclopropyl)-5-(2,2-dichloro-3-(3-chloro-5-(difluoro-methyl)phenyl)cyclopropane-1-carboxamido)benzamide] | 50 to 100% | A (80-100) | 50 to 100% | – | –
N#CC1(NC(=O)c2cc(NC(=O)[C@H]3[C@H](c4ccc(C(F)F)c(F)c4)C3(Cl)Cl)ccc2Cl)CC1 (relative stereo) [Molecule F90, trans-2-Chloro-N-(1-cyanocyclopropyl)-5-(2,2-dichloro-3-(4-(difluoromethyl)-3-fluorophenyl)cyclopropane-1-carboxamido)benzamide] | 50 to 100% | A (80-100) | 50 to 100% | – | –
O=C(NC1CC(F)(F)C1)c1cc(NC(=O)[C@H]2[C@H](c3ccc(Cl)c(F)c3)C2(Cl)Cl)ccc1Cl (relative stereo) [PF6, trans-2-Chloro-5-(2,2-dichloro-3-(4-chloro-3-fluorophenyl)cyclopropane-1-carboxamido)-N-(3,3-difluorocyclobutyl)benzamide] | 50 to 100% | D (No activity noticed in this bioassay) | 50 to 100% | – | –
O=C(NC1CN(C(=O)CC(F)(F)F)C1)c1cc(NC(=O)[C@H]2[C@H](c3cc(Cl)cc(Cl)c3)C2(Cl)Cl)ccc1Cl (relative stereo) [PF12, trans-2-Chloro-5-(2,2-dichloro-3-(3,5-dichlorophenyl)cyclopropane-1-carboxamido)-N-(1-(3,3,3-trifluoropropanoyl)azetidin-3-yl)benzamide] | 50 to 100% | A (80-100) | 50 to 100% | – | –
O=C(NN1CCOC1=O)c1cc(NC(=O)C2C(c3cc(Cl)cc(Cl)c3)C2(Cl)Cl)ccc1Cl (stereo not drawn) [PF34, trans-2-Chloro-5-(2,2-dichloro-3-(3,5-dichlorophenyl)cyclopropanecarbox-amido)-N-(2-oxooxazolidin-3-yl)benzamide] | 50 to 100% | A (80-100) | 50 to 100% | – | –
O=C(NC1CC(F)(F)C1)c1cc(NC(=O)[C@H]2[C@H](c3ccc(C(F)(F)F)cc3)C2(Cl)Cl)ccc1Cl (relative stereo) [Molecule F22, trans-2-Chloro-5-(2,2-dichloro-3-(4-(trifluoromethyl)phenyl)cyclopropanecarboxamido)-N-(3,3-difluorocyclobutyl)benzamide] | 50 to 100% | A (80-100) | 50 to 100% | – | –
N#Cc1cc(Cl)cc(C2C(C(=O)Nc3ccc(Cl)c(C(=O)NC4CC(F)(F)C4)c3)C2(Cl)Cl)c1 (stereo not drawn) [Molecule F77, trans-2-Chloro-5-(2,2-dichloro-3-(3-chloro-5-cyanophenyl)cyclopropane-1-carboxamidocarboxamido)-N-(3,3-difluorocyclobutyl)benzamide] | 50 to 100% | A (80-100) | 50 to 100% | – | –
N#CC1(NC(=O)c2cc(NC(=O)[C@H]3[C@H](c4cc(F)cc(C(F)F)c4)C3(Cl)Cl)ccc2Cl)CC1 (relative stereo) [Molecule F87, trans-2-Chloro-N-(1-cyanocyclopropyl)-5-(2,2-dichloro-3-(3-(difluoromethyl)-5-fluorophenyl)cyclopropane-1-carboxamido)benzamide] | 50 to 100% | A (80-100) | 50 to 100% | – | –
O=C1CC(NC(=O)c2cc(NC(=O)[C@H]3[C@H](c4cc(Cl)cc(Cl)c4)C3(Cl)Cl)ccc2Cl)C1 (relative stereo) [Molecule F68, trans-2-chloro-5-(2,2-dichloro-3-(3,5-dichloro-phenyl)cyclopropane-1-carboxamido)-N-(3-oxocyclobutyl)benzamide] | 50 to 100% | A (80-100) | 50 to 100% | – | –
N#CC1(NC(=O)c2cc(NC(=O)[C@H]3[C@H](c4ccc(Cl)c(C(F)F)c4)C3(Cl)Cl)ccc2Cl)CC1 (relative stereo) [Molecule F86, trans-2-Chloro-N-(1-cyanocyclopropyl)-5-(2,2-dichloro-3-(4-chloro-3-(difluoro-methyl)phenyl)cyclopropane-1-carboxamido)benzamide] | 50 to 100% | A (80-100) | 50 to 100% | – | –
COCC(=O)N1CC(NC(=O)c2cc(NC(=O)[C@H]3[C@H](c4cc(Cl)cc(Cl)c4)C3(Cl)Cl)ccc2Cl)C1 (relative stereo) [PF14, trans-2-Chloro-5-(2,2-dichloro-3-(3,5-dichlorophenyl)cyclopropane-1-carboxamido)-N-(1-(2-methoxyacetyl)azetidin-3-yl)benzamide] | 50 to 100% | A (80-100) | 50 to 100% | – | –
